In brackets after ≈: the same amount, converted by molar mass. Like-named read-outs stand apart in the source and are kept apart here. Values belong to the compound of their own block, whether it stands above or below them.
Key:
Type in all cases: physicochemical
[1] = Binding constant Kb by fluorescence titration
Description: The binding constant between a drug substance and complexing agent can be determined using spectroscopic techniques as outlined by Connors and references therein (Kenneth A. Connors: “Binding Constants”, Wiley-Interscience; 1. edition (April 1987)).
The simplified equilibrium for complexation between pazopanib (034 in Equation 1 shown below) drug substance and13-cyclodextrin sulfobutylether (e.g., Captisol® from Cydex Pharmaceuticals, Inc., Lenexa, Kans.) has been shown as Equation 1, where Kd is the dissociation constant and Kb is the binding constant, 034(s) is solid precipitate for pazopanib, 034(aq) is the aqueous concentration of unbound pazopanib (free state without complexation), Captisol(aq) is the difference between the initial Captisol concentration and the concentration of Captisol in the complexed state with drug substance and pazopanib. […] is the concentration of the complex between pazopanib and 034·Captisol (complexed state).
A titration experiment is performed using pazopanib (approximately 0.05 mg/ml, 10^-4M) solution by varying the concentration of β-cyclodextrin sulfobutylether solution and measuring the fluorescence intensity (excitation at 342 nm, emission at 375 nm) of the resulting solutions. Initial Captisol concentration are chosen to describe the entire titration curve appropriately and to prevent nucleation and precipitation of pazopanib in the solution. […]
The measured Fluorescence intensity is directly related to the concentration of the complexed state 034·Captisol(aq) since uncomplexed pazopanib 034(aq) and Captisol Captisol(aq) have negligible fluorescence yield. The measured fluorescence intensities are fitted using a non-linear simplex fitting routine to determine the value of the binding constant Kb. The Fluorescence intensities are plotted as a function of β-cyclodextrin sulfobutylether concentration according to Benesi and Hildebrandt to determine the binding stoichiometry. […]
Varian Cary Eclipse Fluorescence spectrometer (SN: EL05043801) with a lcm cuvette and orthogonal detection geometry or equivalent. […]

[2] = Solubility of pazopanib as a function of pH in phosphate buffer; conditions: for solubility at 5 days: phosphate buffer, 25 °C, thermodynamic from solid
Method: • 1) Prep 25 mM phosphate buffer (using monobasic Sodium Phosphate, monohydrate), adjust the buffer solution to different target pH using 1N NaOH/HCl. • 2) Add excessive pazopanib free base to the above solutions (˜20 mg free base per 10 mL buffer solution), vortex the solutions, and mix well. […] Equilibrate the solutions for 5 days with agitation. • 4) After 5 days, measure the pH of the solubility solution immediately, and record the pH, and filter the solution into a test tube using a 0.22um PVDF filter. • 5) Dilute the solution by 1:1 (v/v) with 50:50:0.1 water:acetonitrile:TFA (v/v/v) diluent, and mix well. • 6) The solubility of the solutions is analyzed by HPLC at the detection wavelength of 268 nm.
Mobile Phase A: 100:0.1 (v/v) Water:TFA Mobile Phase B: 100:0.1 (v/v) Acetonitrile:TFA Column: Phenomenex Develosil RPAqueous-3, C-30, 3 um, 150 mm×4.6 mm Column temperature: 35° C. Flow rate: Isocratic at 1.0 mL/min, A/B=60/40 Detector wavelength: 268 nm Injection volume: 10 μ L Total run time: 4 minutes

[3] = Calculation of cyclodextrin utility number UCD; conditions: for K: conservative value used for UCD calculations
Description: The cyclodextrin utility number, UCD, is a dimensionless number used to assess the feasibility of using cyclodextrin in dosage forms. UCD is a lumped parameter consisting of the dose of the drug, the workable amount of CD, the binding constant, and the drug solubility in the absence of CDs. UCD can be used to predict the solubility of ionizable drugs showing a synergistic increase in solubility due to ionization and complexation. See, Rao, V. M., Stella, V. J., J Pharm Sci, 92, 5 927, May 2003. UCD is calculated using the following equation:
UCD=(KSo/1+KSo)(MCD/MD)(MWD/MWCD)
where, mD is dose of drug; mCD is dose of cyclodextrin; MWD is molecular weight drug; MWCD is molecular weight cyclodextrin; and Ko is binding constant.
UCD=(KSo/1+KSo)(mCD/mD)(MWD/MWCD)
Binding constant, K, as described in Example 4 above.
Solubility, So, as described in Example 5 above. from Rao, V. M., Stella, V. J., J Pharm Sci, 92, 5 927, May 2003.

[4] = Osmolality contribution of Captisol

binding constant, Kb ([1]; pH of 4, temperature of 40° C.): 9763 mol⁻¹ | binding constant, Kb ([1]; pH of 5, temperature of 25° C.): 9130 mol⁻¹ | binding constant of pazopanib, K ([1]; with modified cyclodextrin such as Captisol): approximately 10,000 | So ([2]; pH 3.5): 4.57e-05 mol/L | solubility in phosphate buffer ([2]; pH 3.5, 25° C.): ~20 µg/mL (≈ 45.7 µM) | So ([2]; pH 4.0): 2.38e-06 mol/L | solubility in phosphate buffer ([2]; pH 4.0, 25° C.): ~1.043 µg/mL (≈ 2.38 µM) | solubility in phosphate buffer (molar value) ([2]; pH 4.0, 25° C.): ~2.38×10^−6 | solubility in phosphate buffer ([2]; pH 4.25, 25° C.): ~0.534 µg/mL (≈ 1.22 µM) | solubility, So ([2]; pH 4.25, 25° C.): ~1.22 µM (≈ 0.534 µg/mL) | solubility in phosphate buffer ([2]; pH 4.5, 25° C.): ~0.025 µg/mL (≈ 0.0571 µM) | solubility, So ([2]; pH 4.5, 25° C.): ~0.0571 µM (≈ 0.025 µg/mL) | solubility, So ([2]; pH 5.0, 25° C.): 0.0137 µM (≈ 0.00599 µg/mL) | solubility at 5 days ([2]; pH 3.5, aqueous buffer, pH 3.5, 25° C., read-out: solubility in phosphate buffer): 20 µg/mL | solubility at 5 days ([2]; pH 3.5, aqueous buffer, pH 3.5, 25° C., read-out: solubility in phosphate buffer (molar value)): 45.7 µM | solubility at 5 days ([2]; pH 4, aqueous buffer, pH 4.0, 25° C., read-out: solubility in phosphate buffer): 1.04 µg/mL | solubility at 5 days ([2]; pH 4, aqueous buffer, pH 4.0, 25° C., read-out: solubility in phosphate buffer (molar value)): 2.38 µM | solubility at 5 days ([2]; pH 4.25, aqueous buffer, pH 4.25, 25° C., read-out: solubility in phosphate buffer): 0.534 µg/mL | solubility at 5 days ([2]; pH 4.25, aqueous buffer, pH 4.25, 25° C., read-out: solubility, So): 1.22 µM | solubility at 5 days ([2]; pH 4.5, aqueous buffer, pH 4.5, 25° C., read-out: solubility in phosphate buffer): 0.025 µg/mL | solubility at 5 days ([2]; pH 4.5, aqueous buffer, pH 4.5, 25° C., read-out: solubility, So): 0.0571 µM | (KSo)/(1 + KSo) ([3]; pH 3.5): 0.314 | K ([3]; pH 3.5): 10000 L/mol | (KSo)/(1 + KSo) ([3]; pH 4.0): 0.023 | K ([3]; pH 4.0): 10000 L/mol | (KSo)/(1 + KSo) ([3]; pH 4.25): 0.012 | K ([3]; pH 4.25): 10000 L/mol | (KSo)/(1 + KSo) ([3]; pH 4.5): 0.0006 | K ([3]; pH 4.5): 10000 L/mol | (KSo)/(1 + KSo) ([3]; pH 5.0): 0.0001 | K ([3]; pH 5.0): 10000 L/mol
Compound: Cc1ccc(Nc2nccc(N(C)c3ccc4c(C)n(C)nc4c3)n2)cc1S(N)(=O)=O [pazopanib]

Osmolality (mOsm) ([4]; Captisol 2 % (w/v)): 20 mOsm | Osmolality (mOsm) ([4]; Captisol 3 % (w/v)): 50 mOsm | Osmolality (mOsm) ([4]; Captisol 4 % (w/v)): 80 mOsm | Osmolality (mOsm) ([4]; Captisol 5 % (w/v)): 110 mOsm | Osmolality (mOsm) ([4]; Captisol 6 % (w/v)): 140 mOsm | Osmolality (mOsm) ([4]; Captisol 7 % (w/v)): 170 mOsm | Osmolality (mOsm) ([4]; Captisol 8 % (w/v)): 201 mOsm | Osmolality (mOsm) ([4]; Captisol 9 % (w/v)): 231 mOsm | Osmolality (mOsm) ([4]; Captisol 10 % (w/v)): 261 mOsm | Osmolality (mOsm) ([4]; Captisol 11 % (w/v)): 291 mOsm | Osmolality (mOsm) ([4]; Captisol 12 % (w/v)): 321 mOsm | Osmolality (mOsm) ([4]; Captisol 13 % (w/v)): 351 mOsm
Compound: β-cyclodextrin sulfobutylether [Captisol]
